Some test systems named below: RXF 393; SW-620; SK-MEL-5; SK-MEL-2; HOP-92; SNB-75; ACHN; M14; IGROV-1; MDA-N; NCI-H226; UACC-257; SK-MEL-28; HL-60; HCT-15; SF-539; MDA-MB-231; K562; SK-OV-3; KM12.
Holding throughout (assay): NCI anticancer screen, dose series, 48 h

The values below come from ChEMBL document CHEMBL1201862, “PubChem BioAssay data set” (2004).

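Method: 48-hour compound exposure of cells in 96-well plates, five concentrations, linear interpolation of endpoints. GI50 = concentration required for 50% inhibition of growth.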 The source made the active and inactive calls. No stated cut-off is given here; in the data, active = GI50 up to about 1.1 µM and inactive = higher.

In the case of `O=C(O)c1ccc(CI)cc1`, the GI50 was 17.7 µM (inactive) in the test on RXF 393; 14.6 µM (inactive) with SW-620; 17 µM (inactive) in the test with SK-MEL-5; 17.9 µM (inactive) with SK-MEL-2; 15.8 µM (inactive) in the test with HOP-92; 33.2 µM (inactive) in the test with SNB-75. Besides, the GI50 with ACHN was 15.7 µM (inactive); with M14, 17.4 µM (inactive); with IGROV-1, 21.1 µM (inactive); in the test with MDA-N, 15.5 µM (inactive); in the test with NCI-H226 it was 22.2 µM (inactive); with UACC-257, 19.3 µM (inactive). Besides, the GI50 in the test on SK-MEL-28 is 14.3 µM (inactive); in the test with HL-60, 20.8 µM (inactive); in the test on HCT-15 it was 16 µM; with SF-539, 18 µM (inactive); in the test with MDA-MB-231, 21.8 µM (inactive); in the test with K562 it was 23.7 µM (inactive). Also, the GI50 with SK-OV-3 was 25.4 µM (inactive).

On to `O=C1C(Cl)=C(Oc2ccc([N+](=O)[O-])cc2)C(=O)c2c(O)ccc(O)c21`, for which the GI50 with RXF 393 was 23.1 µM (inactive); in the test with SW-620 it was 30.2 µM (inactive); with SK-MEL-5, > 84.1 µM (inactive); in the test on HOP-92, 28.3 µM (inactive); with SNB-75, > 100 µM (inactive); in the test with ACHN, 54.2 µM (inactive). Further, the GI50 in the test on M14 is > 47.8 µM (inactive); with IGROV-1, > 100 µM (inactive); in the test on MDA-N, 21 µM (inactive); in the test with NCI-H226, > 100 µM (inactive); in the test with UACC-257, > 100 µM (inactive); with SK-MEL-28, > 50.2 µM (inactive). In addition, the GI50 is 4.65 µM (inactive) in the test with HL-60; 25.6 µM in the test with HCT-15; > 100 µM (inactive) in the test on SF-539; 28.4 µM (inactive) in the test with MDA-MB-231; > 100 µM (inactive) in the test on KM12; 13.3 µM (inactive) with K562. Moreover, in the test on SK-OV-3, the GI50 is > 100 µM (inactive).

As for `CC1CCC(C(=O)O)(C(Br)C(=O)O)CC1` (stereo not given), the GI50 in the test with RXF 393, in the test on SW-620, in the test with SK-MEL-5, in the test with SK-MEL-2, with HOP-92 and in the test on SNB-75 was > 100 µM (inactive) throughout. Further, the GI50 in the test on ACHN, in the test on M14, with IGROV-1, in the test with MDA-N, in the test on NCI-H226 and in the test with UACC-257 was > 100 µM (inactive) each time. In addition, the GI50 was > 100 µM (inactive) in the test with SK-MEL-28; > 100 µM (inactive) in the test on HL-60; greater than 100 µM in the test on HCT-15; > 100 µM (inactive) in the test with MDA-MB-231; > 100 µM (inactive) in the test with KM12; > 100 µM (inactive) with K562.

In the case of `CCCCOCOc1ccccc1P1(=O)COc2ccccc2OC1`, the GI50 in the test with RXF 393 is 37.8 µM (inactive); with SW-620, > 100 µM (inactive); in the test on SK-MEL-5 it was > 100 µM (inactive); with SK-MEL-2 it was > 100 µM (inactive); in the test on HOP-92, 74.1 µM (inactive); with SNB-75, > 100 µM (inactive). The GI50 is 86.7 µM (inactive) in the test on ACHN; 83.9 µM (inactive) in the test on M14; > 100 µM (inactive) in the test on IGROV-1; > 100 µM (inactive) with MDA-N; 67.3 µM (inactive) in the test with UACC-257; > 100 µM (inactive) in the test on SK-MEL-28. The GI50 in the test with HL-60 is 34.7 µM (inactive); in the test with HCT-15 it was 87.1 µM; with SF-539, > 100 µM (inactive); in the test on MDA-MB-231, 43.4 µM (inactive); with KM12, > 100 µM (inactive); in the test with K562 it was 52.2 µM (inactive). The GI50 with SK-OV-3 is > 100 µM (inactive).

Take `O=C1CS(=O)(=O)C(c2cccc(Oc3ccccc3)c2)N1C1CC1` (stereo not given): the GI50 with RXF 393 was 22 µM (inactive); in the test with SW-620 it was 60.5 µM (inactive); in the test on SK-MEL-5, 18.9 µM (inactive); with SK-MEL-2, 45.1 µM (inactive); in the test on HOP-92 it was 23.4 µM (inactive); with SNB-75 it was 24.8 µM (inactive). For the same compound, the GI50 was 31.2 µM (inactive) in the test with ACHN; 41.1 µM (inactive) in the test with M14; 26.7 µM (inactive) in the test on MDA-N; 26.9 µM (inactive) in the test with NCI-H226; 33.2 µM (inactive) with UACC-257; 90.6 µM (inactive) in the test on SK-MEL-28. In addition, the GI50 with HL-60 was 30.8 µM (inactive); in the test on HCT-15 it was 30.3 µM; with SF-539, 50.9 µM (inactive); in the test with MDA-MB-231 it was 75.2 µM (inactive); in the test on KM12, 31.4 µM (inactive); in the test with K562 it was 50.9 µM (inactive). In addition, in the test on SK-OV-3, the GI50 was 33.3 µM (inactive).

Regarding `CCc1c(O)nc(Nc2nc3ccccc3[nH]2)[nH]c1=O`, the GI50 is > 100 µM (inactive) in the test on RXF 393; > 100 µM (inactive) in the test on SW-620; > 100 µM (inactive) with SK-MEL-5; > 100 µM (inactive) with SK-MEL-2; 27.7 µM (inactive) in the test with HOP-92; > 100 µM (inactive) in the test with SNB-75. The GI50 with ACHN, in the test with M14, in the test with IGROV-1, in the test with MDA-N, with NCI-H226 and in the test on UACC-257 was > 100 µM (inactive) throughout. Also, the GI50 with SK-MEL-28 was > 100 µM (inactive); in the test with HL-60, > 100 µM (inactive); in the test on HCT-15, greater than 100 µM; with SF-539 it was > 100 µM (inactive); in the test on MDA-MB-231 it was > 100 µM (inactive); in the test on K562, > 100 µM (inactive). Further, the GI50 in the test on SK-OV-3 was > 100 µM (inactive).

On to `CN1C(=O)C2(c3ccccc31)C1CC3C(CO1)C1C2C3(CO)CN1C#N` (stereo not given), for which the GI50 in the test on RXF 393, with SK-MEL-5, in the test on SK-MEL-2, with HOP-92, with SNB-75 and in the test on ACHN was > 100 µM (inactive) each time. Further, the GI50 with M14, in the test on IGROV-1, with MDA-N, in the test on NCI-H226, with UACC-257 and in the test with SK-MEL-28 was > 100 µM (inactive) throughout. The GI50 in the test on HL-60 was > 100 µM (inactive); in the test with HCT-15, greater than 100 µM; in the test on MDA-MB-231 it was > 100 µM (inactive); in the test on KM12, > 100 µM (inactive); with K562 it was > 100 µM (inactive); in the test with SK-OV-3, > 100 µM (inactive).

Consider `CN1C(=O)N/C(=C\c2ccc(S(=O)(=O)NN)cc2)C1=O`, for which the GI50 in the test on RXF 393, in the test with SW-620, with SK-MEL-5, in the test with SK-MEL-2, in the test with HOP-92 and in the test on SNB-75 was > 100 µM (inactive) each time. The GI50 in the test on ACHN, with M14, in the test on IGROV-1, in the test on MDA-N, in the test with NCI-H226 and with UACC-257 was > 100 µM (inactive) each time. For the same compound, the GI50 was > 100 µM (inactive) with SK-MEL-28; > 100 µM (inactive) in the test with HL-60; greater than 100 µM in the test with HCT-15; > 100 µM (inactive) in the test with MDA-MB-231; > 100 µM (inactive) with KM12; > 100 µM (inactive) in the test on K562. The GI50 with SK-OV-3 is > 100 µM (inactive).
